Here are results for twelve compounds from US20240148821A1, “PHARMACEUTICAL USE OF CYCLIC PEPTIDE COMPOUND” (CHUGAI SEIYAKU KABUSHIKI KAISHA, priority 2021, published 2024).

The structures appear in SMILES notation. Numbered stars: 1 amine (or outer) side, 2 acyl side, 3 side chain; on linkers, the order of the positions; unused ones are H or OH. Bridge positions count the residues as written; N and C are the ends. Square brackets hold non-standard residues; d marks the D form. Peptide text beside a SMILES is read from it. * marks the point of attachment. hPhe(3,5-F2-4-CF3) = N[C@@H](CCc1cc(F)c(C(F)(F)F)c(F)c1)C(=O)O; hPhe(3-Cl-4-CF3) = N[C@@H](CCc1ccc(C(F)(F)F)c(Cl)c1)C(=O)O; hPhe(3-F,4-CF3) = N[C@@H](CCc1ccc(C(F)(F)F)c(F)c1)C(=O)O; X7 = O=C([C@@H]1C[C@H](N2CCC(F)(F)CC2)CN1[*:1])[*:2]; NMePhe(4-CF3) = CN[C@@H](Cc1ccc(C(F)(F)F)cc1)C(=O)O; 3Oxa8azabicyclo(3.2.1)octane = C1CC2COCC1N2*; NMePhe(4-Cl) = CN[C@@H](Cc1ccc(Cl)cc1)C(=O)O; NMePhe(4-Me) = CN[C@@H](Cc1ccc(C)cc1)C(=O)O; NMePhe(4-F) = CN[C@@H](Cc1ccc(F)cc1)C(=O)O; NMedβ3hAla = C[C@H](CC(=O)[*:2])N(C)[*:1]; NMeGly(cPent) = CN[C@H](C(=O)O)C1CCCC1; NMeAla(cPr) = CN[C@@H](CC1CC1)C(=O)O; NMeCha = CN[C@@H](CC1CCCCC1)C(=O)O; Hyp = O=C(O)[C@@H]1C[C@@H](O)CN1; NMeChg = CN[C@H](C(=O)O)C1CCCCC1; NMeI = CC[C@H](C)[C@H](NC)C(=O)O; NMeD = CN[C@@H](CC(=O)O)C(=O)O; NMeL = CN[C@@H](CC(C)C)C(=O)O; NMeV = CN[C@H](C(=O)O)C(C)C; d(β3hA) = C[C@@H](N)CC(=O)O; dNMeS = CN[C@H](CO)C(=O)O; Morpholide = C1CN(*)CCO1; NMeA = CN[C@@H](C)C(=O)O; NMeAib = CNC(C)(C)C(=O)O; Piperidide = C1CCN(*)CC1; dNMeA = CN[C@H](C)C(=O)O; Ac5c = NC1(C(=O)O)CCCC1; Aze = O=C(O)[C@@H]1CCN1; Sar = CNCC(=O)O

Assay [1] relates to Human pancreatic cancer cell line AsPC-1 (G12D mutation Kras). The experiment in a line: AsPC-1 cell growth inhibition (AsPC-1 CGI). As to conditions: read-out: AsPC-1 cell growth inhibition, 50% growth inhibitory concentration (IC50 value); 96 hours, CellTiter-Glo, values classified in ranges. The format is cell-based. A general note: ATP-based viability assays read luminescence as a measure of living cells.
Description: Test compounds were serially dilated with dimethyl sulfoxide, and 200 nL was then dispensed to a U-bottom 96-well plate using Labcyte Echo. […] The cell suspension was dispensed to a. plate containing a test compound at 100 μL per well and incubated at 37° C. in a 5% carbon dioxide gas incubator. 96 hours later, 80 μL of CellTiter-Glo (Promega) was added to each well and fluorescence was measured.

In assay [2] the target is protein-protein interaction between Kras and SOS1 (biotin-tagged human Kras loaded with GDP, His-tagged human SOS1) (Homo sapiens (Human), UniProt P01116, G12D). Nature of the assay: Protein-protein interaction inhibition between Kras and SOS1 (KrasG12D-SOS PPI) using AlphaScreen.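 Note: kras produced in E. coli, Ni-coupled donor beads and streptavidin acceptor beads, excitation 680 nm with emission detected at 520–620 nm via singlet oxygen transfer.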 Type of assay: biochemical. The following applies: AlphaScreen; biotin-tagged human Kras loaded with GDP, His-tagged human SOS1; read-out: KRAS G12D-SOS PPI IC50. (Alpha assays give light when donor and acceptor beads are brought close together.)

Consider `CC[C@H](C)[C@@H]1NC(=O)[C@H](CC(C)C)N(C)C(=O)C[C@@H](C(=O)N2CCOCC2)N(C)C(=O)[C@H]([C@@H](C)CC)N(C)C(=O)C2(CCCC2)NC(=O)[C@@H]2CCCN2C(=O)[C@H](CCc2ccc(C(F)(F)F)c(Cl)c2)NC(=O)CN(C)C(=O)[C@H](Cc2ccc(C(F)(F)F)cc2)N(C)C(=O)[C@@H]2CCN2C(=O)[C@H](C)NC1=O` [Compound 1293] ([NMeL]IA[Aze][NMePhe(4-CF3)][Sar][hPhe(3-Cl-4-CF3)]P[Ac5c][NMeI][NMeD]-Morpholide; lactam N-11), for which the figures for the IC50 in assay [1] and in assay [2] were at most 20 nM and 0.96 nM, respectively.
With `CC[C@H](C)[C@@H]1NC(=O)[C@H](CC(C)C)N(C)C(=O)C[C@@H](C)NC(=O)[C@H](C2CCCC2)N(C)C(=O)[C@@H](C)NC(=O)[C@@H]2CCCN2C(=O)[C@H](CCc2ccc(C(F)(F)F)c(Cl)c2)NC(=O)CN(C)C(=O)[C@H](Cc2ccc(C)cc2)N(C)C(=O)[C@@H]2CCN2C(=O)[C@H](C)N(C)C1=O` [Compound 1222] (cyclo([Aze][NMePhe(4-Me)][Sar][hPhe(3-Cl-4-CF3)]P[dA][NMeGly(cPent)][d(β3hA)][NMeL]I[NMeA])), the IC50 was above 500 nM in assay [1] and 25 nM in assay [2].
On the same counts, the results for `CC[C@H](C)[C@@H]1NC(=O)[C@H](C)N(C)C(=O)C[C@@H](C(=O)N2CCCCC2)N(C)C(=O)[C@H](C(C)C)N(C)C(=O)C2(CCCC2)NC(=O)[C@H](Cc2ccc(C)cc2)N(C)C(=O)[C@H](CCc2ccc(C(F)(F)F)c(Cl)c2)NC(=O)CN(C)C(=O)[C@H](CC2CCCCC2)N(C)C(=O)CN(C)C(=O)CN(C)C1=O` [Compound 346] ([NMeA]I[Sar][Sar][NMeCha][Sar][hPhe(3-Cl-4-CF3)][NMePhe(4-Me)][Ac5c][NMeV][NMeD]-Piperidide; lactam N-11) are above 500 nM and 11 nM.
For the compound `CC[C@H](C)[C@@H]1NC(=O)[C@H](CC(C)C)N(C)C(=O)C[C@@H](C(=O)N2CCCCC2)N(C)C(=O)[C@H](C2CCCCC2)N(C)C(=O)C2(CCCC2)NC(=O)[C@@H](CO)N(C)C(=O)[C@H](CCc2ccc(C(F)(F)F)c(Cl)c2)NC(=O)CN(C)C(=O)[C@H](CC2CCCCC2)N(C)C(=O)CN(C)C(=O)CN(C)C1=O` [Compound 1448] ([NMeL]I[Sar][Sar][NMeCha][Sar][hPhe(3-Cl-4-CF3)][dNMeS][Ac5c][NMeChg][NMeD]-Piperidide; lactam N-11), the IC50 in assay [1] is above 500 nM; in assay [2], 1.1 nM.
Regarding `CC[C@H](C)[C@@H]1NC(=O)[C@H](CC(C)C)N(C)C(=O)C[C@@H](C(=O)N2C3CCC2COC3)N(C)C(=O)[C@H](C2CCCC2)N(C)C(=O)C2(CCCC2)NC(=O)[C@@H]2CCCN2C(=O)[C@H](CCc2ccc(C(F)(F)F)c(Cl)c2)NC(=O)CN(C)C(=O)[C@H](CC2CCCCC2)N(C)C(=O)[C@@H]2CCN2C(=O)[C@H](C)N(C)C1=O` [Compound 973] ([NMeL]I[NMeA][Aze][NMeCha][Sar][hPhe(3-Cl-4-CF3)]P[Ac5c][NMeGly(cPent)][NMeD]-{3Oxa8azabicyclo(3.2.1)octane}; lactam N-11), the values for the IC50 in assay [1] and in assay [2] were at most 20 nM and 2.8 nM, respectively.
In the case of `CC[C@H](C)[C@@H]1NC(=O)[C@H](CC(C)C)N(C)C(=O)C[C@@H](C)N(C)C(=O)[C@H](CC(C)C)NC(=O)C(C)(C)N(C)C(=O)[C@H](CC(C)C)NC(=O)[C@H](CCc2ccc(C(F)(F)F)c(F)c2)NC(=O)CN(C)C(=O)[C@H](Cc2ccc(Cl)cc2)N(C)C(=O)CN(C)C(=O)CN(C)C1=O` [Compound 797] (cyclo(I[Sar][Sar][NMePhe(4-Cl)][Sar][hPhe(3-F,4-CF3)]L[NMeAib]L[NMedβ3hAla][NMeL])), the IC50 is above 500 nM in assay [1] and 19 nM in assay [2].
Regarding `CCO[C@@H]1C[C@H]2C(=O)NC3(CCCC3)C(=O)N(C)[C@@H](C3CCCCC3)C(=O)N(C)[C@H](C(=O)N3C4CCC3COC4)CC(=O)N(C)[C@@H](CC(C)C)C(=O)N[C@@H]([C@@H](C)CC)C(=O)N(C)CC(=O)N(C)CC(=O)N(C)[C@@H](CC3CCCCC3)C(=O)N(C)CC(=O)N[C@@H](CCc3cc(F)c(C(F)(F)F)c(F)c3)C(=O)N2C1` [Compound 1341] ([NMeL]I[Sar][Sar][NMeCha][Sar][hPhe(3,5-F2-4-CF3)][Hyp](Et)[Ac5c][NMeChg][NMeD]-{3Oxa8azabicyclo(3.2.1)octane}; lactam N-11), the results for the IC50 in assay [1] and in assay [2] were at most 20 nM and 0.82 nM, respectively.
On the same counts, the results for `CC[C@H](C)[C@@H]1NC(=O)[C@H](C)N(C)C(=O)C[C@@H](C(=O)N2CCCCC2)N(C)C(=O)[C@H](C(C)C)N(C)C(=O)C2(CCCC2)NC(=O)[C@@H]2C[C@H](N3CCC(F)(F)CC3)CN2C(=O)[C@H](CCc2ccc(C(F)(F)F)c(Cl)c2)NC(=O)CN(C)C(=O)[C@H](CC2CCCCC2)N(C)C(=O)CN(C)C(=O)CN(C)C1=O` [Compound 460] ([NMeA]I[Sar][Sar][NMeCha][Sar][hPhe(3-Cl-4-CF3)][X7][Ac5c][NMeV][NMeD]-Piperidide; lactam N-11) are above 500 nM and 1 nM.
On the same counts, the results for `CC[C@H](C)[C@@H]1NC(=O)[C@H](CC(C)C)N(C)C(=O)C[C@@H](C)N(C)C(=O)[C@H]([C@@H](C)CC)N(C)C(=O)C2(CCCC2)NC(=O)[C@@H]2CCCN2C(=O)[C@H](CCc2cc(F)c(C(F)(F)F)c(F)c2)NC(=O)CN(C)C(=O)[C@H](Cc2ccc(C(F)(F)F)cc2)N(C)C(=O)[C@@H]2CCN2C(=O)[C@H](C)N(C)C1=O` [Compound 907] (cyclo([Ac5c][NMeI][NMedβ3hAla][NMeL]I[NMeA][Aze][NMePhe(4-CF3)][Sar][hPhe(3,5-F2-4-CF3)]P)) are at most 20 nM and 1.4 nM.
On the same counts, the results for `CC[C@H](C)[C@@H]1NC(=O)[C@H](C)N(C)C(=O)C[C@@H](C(=O)N2CCCCC2)N(C)C(=O)[C@H](C(C)C)N(C)C(=O)C2(CCCC2)NC(=O)[C@@H]2CCCN2C(=O)[C@H](CCc2ccc(C(F)(F)F)c(Cl)c2)NC(=O)[C@@H](C)N(C)C(=O)[C@H](Cc2ccc(F)cc2)N(C)C(=O)[C@@H]2CCN2C(=O)[C@H](C)N(C)C1=O` [Compound 1816] ([NMeA]I[NMeA][Aze][NMePhe(4-F)][dNMeA][hPhe(3-Cl-4-CF3)]P[Ac5c][NMeV][NMeD]-Piperidide; lactam N-11) are above 500 nM and 12 nM.
In the case of `CC[C@H](C)[C@@H]1NC(=O)[C@H](CC(C)C)N(C)C(=O)C[C@@H](C(=O)N2CCCCC2)N(C)C(=O)[C@H](CC2CC2)N(C)C(=O)C2(CCCC2)NC(=O)[C@@H]2CCCN2C(=O)[C@H](CCc2ccc(C(F)(F)F)c(Cl)c2)NC(=O)CN(C)C(=O)[C@H](CC2CCCCC2)N(C)C(=O)[C@@H]2CCN2C(=O)[C@H](C)N(C)C1=O` [Compound 172] ([NMeL]I[NMeA][Aze][NMeCha][Sar][hPhe(3-Cl-4-CF3)]P[Ac5c][NMeAla(cPr)][NMeD]-Piperidide; lactam N-11), the figures for the IC50 in assay [1] and in assay [2] were above 500 nM and 4 nM, respectively.
For `CC[C@H](C)[C@@H]1NC(=O)[C@H](CC(C)C)N(C)C(=O)C[C@@H](C(=O)N2CCCCC2)N(C)C(=O)[C@H](C(C)C)N(C)C(=O)[C@H](C(C)C)NC(=O)[C@@H]2CCCN2C(=O)[C@H](CCc2ccc(C(F)(F)F)c(Cl)c2)NC(=O)CN(C)C(=O)[C@H](CC2CCCCC2)N(C)C(=O)[C@@H]2CCN2C(=O)[C@H](C)N(C)C1=O` [Compound 741] ([NMeL]I[NMeA][Aze][NMeCha][Sar][hPhe(3-Cl-4-CF3)]PV[NMeV][NMeD]-Piperidide; lactam N-11), the IC50 was above 500 nM in assay [1] and 86 nM in assay [2].
